{"source": "patent US10479784B2", "about": "“Substituted pyrazin-2-amines as inhibitors of ATR kinase” (Vertex Pharmaceuticals Incorporated, priority 2008, dated 2019)", "data": [{"target": "full-length ATR (Homo sapiens (Human), UniProt Q13535)", "sequence (Q13535 whole entry)": "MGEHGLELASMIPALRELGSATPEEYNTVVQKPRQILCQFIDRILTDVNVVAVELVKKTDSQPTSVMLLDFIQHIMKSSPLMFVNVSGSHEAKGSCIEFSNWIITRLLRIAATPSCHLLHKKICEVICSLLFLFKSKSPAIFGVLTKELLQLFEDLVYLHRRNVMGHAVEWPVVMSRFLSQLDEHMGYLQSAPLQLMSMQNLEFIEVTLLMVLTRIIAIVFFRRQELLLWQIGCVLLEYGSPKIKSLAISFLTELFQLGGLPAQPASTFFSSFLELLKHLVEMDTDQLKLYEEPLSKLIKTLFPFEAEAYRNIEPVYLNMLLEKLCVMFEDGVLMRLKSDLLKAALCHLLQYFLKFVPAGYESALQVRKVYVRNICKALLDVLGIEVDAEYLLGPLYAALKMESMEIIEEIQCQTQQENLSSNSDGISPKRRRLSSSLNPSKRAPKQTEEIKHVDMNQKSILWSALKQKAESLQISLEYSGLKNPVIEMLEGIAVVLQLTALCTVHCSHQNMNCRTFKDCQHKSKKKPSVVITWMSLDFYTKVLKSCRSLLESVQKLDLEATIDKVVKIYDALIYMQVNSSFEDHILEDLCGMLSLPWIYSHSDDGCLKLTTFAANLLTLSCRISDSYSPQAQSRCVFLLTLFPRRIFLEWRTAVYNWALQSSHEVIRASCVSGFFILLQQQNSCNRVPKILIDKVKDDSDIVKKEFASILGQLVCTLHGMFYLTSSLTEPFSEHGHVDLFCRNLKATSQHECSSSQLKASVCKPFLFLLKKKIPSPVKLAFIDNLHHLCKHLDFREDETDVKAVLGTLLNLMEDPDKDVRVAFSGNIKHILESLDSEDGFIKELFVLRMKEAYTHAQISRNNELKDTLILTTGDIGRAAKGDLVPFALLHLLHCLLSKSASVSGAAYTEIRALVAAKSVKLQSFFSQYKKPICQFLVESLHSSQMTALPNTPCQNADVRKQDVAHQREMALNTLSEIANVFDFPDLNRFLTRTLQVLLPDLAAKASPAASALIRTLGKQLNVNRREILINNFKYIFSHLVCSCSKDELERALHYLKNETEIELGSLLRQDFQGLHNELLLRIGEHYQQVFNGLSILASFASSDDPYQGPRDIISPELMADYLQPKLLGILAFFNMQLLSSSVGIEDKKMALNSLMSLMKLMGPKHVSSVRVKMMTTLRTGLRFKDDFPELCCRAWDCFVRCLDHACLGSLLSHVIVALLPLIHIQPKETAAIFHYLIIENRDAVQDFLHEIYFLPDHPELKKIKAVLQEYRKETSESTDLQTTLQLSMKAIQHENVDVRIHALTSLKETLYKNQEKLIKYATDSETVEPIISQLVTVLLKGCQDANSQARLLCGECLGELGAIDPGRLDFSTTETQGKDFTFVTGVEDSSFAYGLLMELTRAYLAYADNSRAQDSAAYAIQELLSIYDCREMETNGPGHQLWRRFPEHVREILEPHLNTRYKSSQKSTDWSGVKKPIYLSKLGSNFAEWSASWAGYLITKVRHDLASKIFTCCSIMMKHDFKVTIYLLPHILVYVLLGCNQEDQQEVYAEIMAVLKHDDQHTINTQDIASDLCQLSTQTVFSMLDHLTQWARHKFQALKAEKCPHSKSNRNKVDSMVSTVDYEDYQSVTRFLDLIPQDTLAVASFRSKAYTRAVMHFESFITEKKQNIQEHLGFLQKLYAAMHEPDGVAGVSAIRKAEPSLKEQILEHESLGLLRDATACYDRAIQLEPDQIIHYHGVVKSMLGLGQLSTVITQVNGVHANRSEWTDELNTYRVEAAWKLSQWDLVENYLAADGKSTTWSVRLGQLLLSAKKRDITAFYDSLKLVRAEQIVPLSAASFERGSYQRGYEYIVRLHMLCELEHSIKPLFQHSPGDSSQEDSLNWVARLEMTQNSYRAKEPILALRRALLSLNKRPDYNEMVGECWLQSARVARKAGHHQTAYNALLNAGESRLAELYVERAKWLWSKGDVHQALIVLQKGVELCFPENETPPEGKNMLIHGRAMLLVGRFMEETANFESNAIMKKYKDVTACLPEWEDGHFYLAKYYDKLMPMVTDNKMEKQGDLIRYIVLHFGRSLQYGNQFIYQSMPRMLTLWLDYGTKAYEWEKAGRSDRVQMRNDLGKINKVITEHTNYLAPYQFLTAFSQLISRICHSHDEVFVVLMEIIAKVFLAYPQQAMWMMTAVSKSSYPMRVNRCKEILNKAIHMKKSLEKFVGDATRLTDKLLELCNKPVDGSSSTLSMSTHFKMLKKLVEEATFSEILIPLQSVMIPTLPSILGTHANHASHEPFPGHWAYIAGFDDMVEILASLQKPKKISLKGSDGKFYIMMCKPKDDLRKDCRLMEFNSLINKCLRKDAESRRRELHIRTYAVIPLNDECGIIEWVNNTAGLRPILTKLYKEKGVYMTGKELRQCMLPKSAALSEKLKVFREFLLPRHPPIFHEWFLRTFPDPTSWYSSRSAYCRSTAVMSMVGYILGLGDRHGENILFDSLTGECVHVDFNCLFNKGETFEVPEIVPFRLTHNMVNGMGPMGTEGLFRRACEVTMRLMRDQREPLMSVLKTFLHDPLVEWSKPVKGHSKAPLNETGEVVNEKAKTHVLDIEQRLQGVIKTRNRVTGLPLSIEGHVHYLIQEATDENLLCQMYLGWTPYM", "test": "ATR Inhibition Assay (radioactive-phosphate incorporation)", "format": "biochemical", "settings": "read-out: ATR Ki", "how_it_was_run": "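Ki(app) was derived by non-linear regression of background-corrected initial rates of 33P incorporation into an 800 μM target peptide, read by phosphocellulose filter scintillation counting. Reaction conditions: 5 nM full-length ATR, 10 μM [γ-33P]ATP, pH 7.5 Tris buffer with MgCl2 and DTT, 25 °C, 10-min preincubation, 24 h run.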", "units": {"Ki": "nM"}, "values": [{"smiles": "Nc1ncc(-c2cccc(C(F)(F)F)c2)nc1-c1nnc(-c2ccccc2)o1", "note": "[IA-96, 3-(5-phenyl-1,3,4-oxadiazol-2-yl)-5-[3-(trifluoromethyl)phenyl]pyrazin-2-amine]", "Ki": "100 to 5000"}, {"smiles": "CC(C)S(=O)(=O)c1ccc(-c2cnc(N)c(-c3nnc(NCCCN)o3)n2)cc1", "note": "[IA-97, N-[5-[3-amino-6-(4-isopropylsulfonylphenyl)pyrazin-2-yl]-1,3,4-oxadiazol-2-yl]propane-1,3-diamine]", "Ki": "10 to 100"}, {"smiles": "CC(C)S(=O)(=O)c1ccc(-c2cnc(N)c(-c3nnc(C(=O)N4CCCC(N)C4)o3)n2)cc1", "note": "(stereo not shown) [IA-98, [5-[3-amino-6-(4-isopropylsulfonylphenyl)pyrazin-2-yl]-1,3,4-oxadiazol-2-yl]-(3-amino-1-piperidyl)methanone]", "Ki": "10 to 100"}, {"smiles": "NC(=O)c1cccc(-c2cnc(N)c(-c3nnc(-c4ccccc4)o3)n2)c1", "note": "[IA-100, 3-[5-amino-6-(5-phenyl-1,3,4-oxadiazol-2-yl)pyrazin-2-yl]benzamide]", "Ki": "10 to 100"}, {"smiles": "CN(C)C(=O)c1ccc(-c2cnc(N)c(-c3nnc(C4CC4)o3)n2)cc1", "note": "[IA-101, 4-[5-amino-6-(5-cyclopropyl-1,3,4-oxadiazol-2-yl)pyrazin-2-yl]-N,N-dimethyl-benzamide]", "Ki": "100 to 5000"}, {"smiles": "CC(C)S(=O)(=O)c1ccc(-c2cnc(N)c(-c3nnc(-c4ccc(C5CCCN5)cc4)o3)n2)cc1", "note": "(stereo not shown) [IA-102, 5-(4-isopropylsulfonylphenyl)-3-[5-(4-pyrrolidin-2-ylphenyl)-1,3,4-oxadiazol-2-yl]pyrazin-2-amine]", "Ki": "≤ 10"}, {"smiles": "COc1ccccc1Nc1nnc(-c2nc(-c3ccc(C(=O)N(C)C)cc3)cnc2N)o1", "note": "[IA-103, 4-[5-amino-6-[5-(2-methoxyanilino)-1,3,4-oxadiazol-2-yl]pyrazin-2-yl]-N,N-dimethyl-benzamide]", "Ki": "10 to 100"}, {"smiles": "Nc1ncc(-c2ccsc2)nc1-c1nnc(-c2ccccc2)o1", "note": "[IA-104, 3-(5-phenyl-1,3,4-oxadiazol-2-yl)-5-(3-thienyl)pyrazin-2-amine]", "Ki": "10 to 100"}, {"smiles": "COC(=O)c1ccccc1-c1cnc(N)c(-c2nnc(-c3ccccc3)o2)n1", "note": "[IA-105, methyl 2-[5-amino-6-(5-phenyl-1,3,4-oxadiazol-2-yl)pyrazin-2-yl]benzoate]", "Ki": "100 to 5000"}, {"smiles": "CN(C)C(=O)c1ccc(-c2cnc(N)c(-c3nnc(-c4ccc(C(O)CO)cc4)o3)n2)cc1", "note": "(stereo not shown) [IA-106, 4-[5-amino-6-[5-[4-(1,2-dihydroxyethyl)phenyl]-1,3,4-oxadiazol-2-yl]pyrazin-2-yl]-N,N-dimethyl-benzamide]", "Ki": "10 to 100"}, {"smiles": "CC(C)S(=O)(=O)c1ccc(-c2cnc(N)c(-c3nnc(-c4ccc(CCN)cc4)o3)n2)cc1", "note": "[IA-107, 3-[5-[4-(2-aminoethyl)phenyl]-1,3,4-oxadiazol-2-yl]-5-(4-isopropylsulfonylphenyl)pyrazin-2-amine]", "Ki": "≤ 10"}, {"smiles": "CC(C)Oc1ccccc1-c1nnc(-c2nc(-c3ccc(C(=O)N(C)C)cc3)cnc2N)o1", "note": "[IA-108, 4-[5-amino-6-[5-(2-isopropoxyphenyl)-1,3,4-oxadiazol-2-yl]pyrazin-2-yl]-N,N-dimethyl-benzamide]", "Ki": "≤ 10"}, {"smiles": "CC(C)S(=O)(=O)c1ccc(-c2cnc(N)c(-c3nnc(N4CCC(N)CC4)o3)n2)cc1", "note": "[IA-109, 3-[5-(4-amino-1-piperidyl)-1,3,4-oxadiazol-2-yl]-5-(4-isopropylsulfonylphenyl)pyrazin-2-amine]", "Ki": "100 to 5000"}, {"smiles": "CC(=O)c1ccc(-c2cnc(N)c(-c3nnc(-c4ccccc4)o3)n2)cc1", "note": "[IA-110, 1-[4-[5-amino-6-(5-phenyl-1,3,4-oxadiazol-2-yl)pyrazin-2-yl]phenyl]ethanone]", "Ki": "10 to 100"}, {"smiles": "CC(C)S(=O)(=O)c1ccc(-c2cnc(N)c(-c3nnc(N4CC(N)C4)o3)n2)cc1", "note": "[IA-111, 3-[5-(3-aminoazetidin-1-yl)-1,3,4-oxadiazol-2-yl]-5-(4-isopropylsulfonylphenyl)pyrazin-2-amine]", "Ki": "100 to 5000"}, {"smiles": "Nc1ncc(-c2ccc(S(=O)(=O)N3CCC3)cc2)nc1-c1nnc(-c2ccccc2)o1", "note": "[IA-112, 5-[4-(azetidin-1-ylsulfonyl)phenyl]-3-(5-phenyl-1,3,4-oxadiazol-2-yl)pyrazin-2-amine]", "Ki": "≤ 10"}]}]}
